Source: ChEMBL document CHEMBL1134916, “Synthesis and evaluation of 7-substituted-3-cyclobutylamino-4H-1,2,4-benzothiadiazine-1,1-dioxide derivatives as K(ATP) channel agonists” (Bioorg Med Chem Lett, 2002)

tested on: not listed separately; assay: Acid dissociation constant was determined; type: ADME

Compared with `O=S1(=O)N=C(NC2CCC2)Nc2ccc(Cl)cc21`, `CC1=NS(=O)(=O)c2cc(Cl)ccc2N1` [DIAZOXIDE] is lower in pKa: 9.36 for the first, 8.62 for the second.

Compared with `O=S1(=O)NC(NC2CCC2)=Nc2ccc(F)cc21`, `O=[N+]([O-])c1ccc2c(c1)S(=O)(=O)NC(NC1CCC1)=N2` is lower in pKa: 9.57 for the first, 7.89 for the second.

target: T1, Sulfonylurea receptor 1, Kir6.2 (Homo sapiens, UniProt Q09428+Q14654); assay: Inhibition of Beta-cell KATP channel; type: functional
T1 sequence (Q14654 whole entry): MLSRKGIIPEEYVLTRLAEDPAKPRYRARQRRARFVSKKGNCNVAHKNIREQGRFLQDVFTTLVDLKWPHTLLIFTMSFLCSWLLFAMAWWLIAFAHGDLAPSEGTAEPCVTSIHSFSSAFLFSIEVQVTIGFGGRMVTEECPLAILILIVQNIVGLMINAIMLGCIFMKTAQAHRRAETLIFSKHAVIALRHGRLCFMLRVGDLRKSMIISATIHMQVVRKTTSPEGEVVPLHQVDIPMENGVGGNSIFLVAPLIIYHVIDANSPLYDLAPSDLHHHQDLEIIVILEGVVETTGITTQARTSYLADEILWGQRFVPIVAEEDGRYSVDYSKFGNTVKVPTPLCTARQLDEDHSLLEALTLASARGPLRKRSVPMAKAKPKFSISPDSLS
T1 sequence (Q09428 whole entry): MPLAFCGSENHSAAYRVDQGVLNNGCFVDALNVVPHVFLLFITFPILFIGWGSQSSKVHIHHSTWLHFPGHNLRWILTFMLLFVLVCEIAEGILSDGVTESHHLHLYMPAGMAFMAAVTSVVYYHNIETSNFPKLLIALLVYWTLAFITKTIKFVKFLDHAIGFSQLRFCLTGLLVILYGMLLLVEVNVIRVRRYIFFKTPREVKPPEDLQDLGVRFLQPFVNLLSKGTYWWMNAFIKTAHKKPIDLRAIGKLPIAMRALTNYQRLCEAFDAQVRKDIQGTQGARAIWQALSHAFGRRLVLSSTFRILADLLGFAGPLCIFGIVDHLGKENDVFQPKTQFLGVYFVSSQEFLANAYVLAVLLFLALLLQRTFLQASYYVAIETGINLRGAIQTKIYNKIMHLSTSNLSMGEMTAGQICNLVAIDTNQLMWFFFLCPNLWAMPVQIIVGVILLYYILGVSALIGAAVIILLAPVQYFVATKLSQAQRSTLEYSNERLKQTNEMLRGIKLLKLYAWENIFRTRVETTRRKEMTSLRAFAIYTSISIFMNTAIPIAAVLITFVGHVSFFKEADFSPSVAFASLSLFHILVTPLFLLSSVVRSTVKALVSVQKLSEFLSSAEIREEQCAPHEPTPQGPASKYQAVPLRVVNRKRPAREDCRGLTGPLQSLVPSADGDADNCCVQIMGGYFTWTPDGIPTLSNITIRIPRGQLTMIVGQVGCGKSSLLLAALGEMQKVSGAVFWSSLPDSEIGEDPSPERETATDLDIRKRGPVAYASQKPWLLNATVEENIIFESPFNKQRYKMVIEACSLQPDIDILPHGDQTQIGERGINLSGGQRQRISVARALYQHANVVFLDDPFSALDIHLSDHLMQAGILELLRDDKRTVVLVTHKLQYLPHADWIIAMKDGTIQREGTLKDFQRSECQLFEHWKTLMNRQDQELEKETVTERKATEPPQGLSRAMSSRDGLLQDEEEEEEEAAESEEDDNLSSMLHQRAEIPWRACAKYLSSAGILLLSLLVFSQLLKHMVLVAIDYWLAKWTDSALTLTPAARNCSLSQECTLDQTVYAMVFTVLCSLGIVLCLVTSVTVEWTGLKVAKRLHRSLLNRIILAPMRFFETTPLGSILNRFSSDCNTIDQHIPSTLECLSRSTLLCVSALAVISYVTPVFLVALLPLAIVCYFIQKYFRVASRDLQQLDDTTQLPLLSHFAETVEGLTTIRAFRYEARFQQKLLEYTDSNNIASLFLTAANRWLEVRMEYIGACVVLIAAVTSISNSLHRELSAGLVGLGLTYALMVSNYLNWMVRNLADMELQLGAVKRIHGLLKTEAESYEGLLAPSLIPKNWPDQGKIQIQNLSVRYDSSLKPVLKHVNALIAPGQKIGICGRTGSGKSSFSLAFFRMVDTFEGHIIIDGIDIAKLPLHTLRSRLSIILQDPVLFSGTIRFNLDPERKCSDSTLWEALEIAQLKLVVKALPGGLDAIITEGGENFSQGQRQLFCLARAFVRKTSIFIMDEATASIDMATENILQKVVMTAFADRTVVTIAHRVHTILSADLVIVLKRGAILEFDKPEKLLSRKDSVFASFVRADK

First: O=S1(=O)N=C(NC2CCC2)Nc2ccccc21
Second: O=S1(=O)N=C(NC2CCC2)Nc2ccc(Cl)cc21
The EC50 of the first is 10-fold higher: 1960 nM for the first, 196 nM for the second.

Compared with `O=S1(=O)NC(NC2CCC2)=Nc2ccc(F)cc21`, `Nc1ccc2c(c1)S(=O)(=O)NC(NC1CCC1)=N2` is 87-fold higher in EC50: 356 nM for the first, 31000 nM for the second.

Compared with `COc1ccc2c(c1)S(=O)(=O)NC(NC1CCC1)=N2`, `O=[N+]([O-])c1ccc2c(c1)S(=O)(=O)NC(NC1CCC1)=N2` is 7.3-fold lower in EC50: 3870 nM for the first, 530 nM for the second.

target: Sulfonylurea receptor 1, Kir6.2 (Homo sapiens) (UniProt Q14654+Q09428); assay: Percentage of maximal agonistic response of Beta-cell KATP channel as compared to diazoxide (50 uM); type: functional

Going from `O=S1(=O)N=C(NC2CCC2)Nc2ccccc21` to `O=S1(=O)N=C(NC2CCC2)Nc2ccc(Cl)cc21`, the Max rises from 109% to 137%.

Compared with `O=S1(=O)NC(NC2CCC2)=Nc2ccc(F)cc21`, `Nc1ccc2c(c1)S(=O)(=O)NC(NC1CCC1)=N2` is lower in Max: 136% for the first, 96.9% for the second.

First: CC1=Nc2ccc(Cl)cc2S(=O)(=O)N1
Second: COc1ccc2c(c1)S(=O)(=O)NC(NC1CCC1)=N2
The Max of the first is lower: 100% for the first, 122% for the second.

`O=[N+]([O-])c1ccc2c(c1)S(=O)(=O)NC(NC1CCC1)=N2` showed a Max of 30.9%.

target: T1, Sulfonylurea receptor 1, Kir6.2; assay: Negative log EC50 for Beta-cell KATP channel; type: functional

First: O=S1(=O)N=C(NC2CCC2)Nc2ccccc21
Second: O=S1(=O)N=C(NC2CCC2)Nc2ccc(Cl)cc21
The EC50 of the first is 10-fold higher: 2000 nM for the first, 200 nM for the second. The second is the more potent here.

Compared with `O=S1(=O)NC(NC2CCC2)=Nc2ccc(F)cc21`, `Nc1ccc2c(c1)S(=O)(=O)NC(NC1CCC1)=N2` is 79-fold higher in EC50: 398 nM for the first, 31600 nM for the second. The first is the more potent here.

For `COc1ccc2c(c1)S(=O)(=O)NC(NC1CCC1)=N2`, the EC50 was 3980 nM.
